From ChEMBL document CHEMBL3714744, “Aryl sulfonamides” (2009)
The source made the active and inactive calls. No cut-off for these calls is given here.

Key:
[1] = molecular target: T1, C-C chemokine receptor type 9 (Homo sapiens, UniProt P51686); experiment: Antagonist activity against CCR9 in human MOLT4 cells assessed as inhibition of human recombinant TECK-induced calcium response pre-treated before TECK stimulation by Flou-4-AM dye based FLIPR assay; type: functional, cell-based, MOLT-4
T1 sequence (P51686 whole entry): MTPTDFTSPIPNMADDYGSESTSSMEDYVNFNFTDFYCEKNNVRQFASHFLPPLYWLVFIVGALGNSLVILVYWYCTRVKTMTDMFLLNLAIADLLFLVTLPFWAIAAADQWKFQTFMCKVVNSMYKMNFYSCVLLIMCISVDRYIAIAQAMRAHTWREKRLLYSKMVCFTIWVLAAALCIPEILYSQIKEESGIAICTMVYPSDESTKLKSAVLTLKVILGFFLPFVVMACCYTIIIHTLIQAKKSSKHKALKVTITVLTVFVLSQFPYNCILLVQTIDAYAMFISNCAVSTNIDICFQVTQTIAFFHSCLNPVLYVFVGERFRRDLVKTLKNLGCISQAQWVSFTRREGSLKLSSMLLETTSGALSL

[2] = tested on: Mus musculus; experiment: Inhibition of inflammatory bowel disease-associated growth retardation in MDR1a-knockout mouse at 50 mg/kg, sc dosed twice daily for 14 consecutive weeks starting at age 10 weeks; type: functional, organism-based

SMILES | IC50 [1] | IC50 ([1]; molt-4) | other results
O=C(c1ccncc1)c1cc(Cl)ccc1NS(=O)(=O)c1ccc([N+](=O)[O-])cc1 | < 100 nM |  | 
COC(=O)CCc1ccc(S(=O)(=O)Nc2ccc(Cl)cc2C(=O)c2ccnc(C)c2)cc1 | < 100 nM |  | 
Cc1ncccc1C(=O)c1cc(Cl)ccc1NS(=O)(=O)c1ccc(OC(F)(F)F)cc1 |  | in the range around 100 nM | 
COc1ccc(S(=O)(=O)Nc2ccc(Cl)cc2C(=O)c2ccccn2)cc1 |  | in the range around 100 nM | 
Cc1ncccc1C(=O)c1cc(Cl)ccc1NS(=O)(=O)c1ccc(-c2cnco2)cc1 |  | in the range around 1000 nM | 
Cc1cc(C(=O)c2cc(Cl)ccc2NS(=O)(=O)c2ccc(S(C)(=O)=O)cc2)ccn1 | < 100 nM |  | 
CC(C)(C)c1ccc(S(=O)(=O)Nc2ccc(Cl)cc2C(=O)c2ccncc2)cc1 |  |  | inhibition [2]: Active
CS(=O)(=O)c1ccc(S(=O)(=O)Nc2ccc(Cl)cc2C(=O)c2cccnc2)cc1 | < 100 nM |  | 
CC(=O)c1ccc(S(=O)(=O)Nc2ccc(Br)cc2C(=O)c2ccncc2)cc1 | < 100 nM |  | 
